One assay has as its target T1, αllbβ3 integrin (Homo sapiens, UniProt P05106+P08514).
T1 construct: Human platelet membrane preparations were used as a source of αllbβ3 integrin; from tissue; host or cells: human platelets (membrane preparation)
The assay is described as follows: ELISA: inhibition of binding of αllbβ3 integrin membrane preparation to coated extracellular matrix protein. Conditions: human platelet membrane preparation. Summed up: (§1)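 Integrin sources were human platelet membrane preparations for αIIbβ3 and WM-115 cells for αVβ3, each preincubated with test compound. Binding to fibrinogen- or vitronectin-coated plates (10 µg/well) was quantified with an anti-integrin β3 antibody and an HRP-coupled secondary antibody using colorimetric detection.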
Background: An ELISA detects its analyte on a solid surface through an enzyme-linked reagent.

In the next assay the target is T2, αVβ3 integrin (Homo sapiens, UniProt P05106+P06756).
T2 construct: the cell line WM-115 was used as a source of αVβ3 integrin; endogenous in cells; host or cells: WM-115 cell line
The experiment in a line: ELISA: inhibition of binding of αVβ3 integrin (source WM-115 cell line) to coated extracellular matrix protein. To be noted: WM-115 cell line as integrin source. Summed up: as §1

T1 sequence (P08514 32-887 limits assumed): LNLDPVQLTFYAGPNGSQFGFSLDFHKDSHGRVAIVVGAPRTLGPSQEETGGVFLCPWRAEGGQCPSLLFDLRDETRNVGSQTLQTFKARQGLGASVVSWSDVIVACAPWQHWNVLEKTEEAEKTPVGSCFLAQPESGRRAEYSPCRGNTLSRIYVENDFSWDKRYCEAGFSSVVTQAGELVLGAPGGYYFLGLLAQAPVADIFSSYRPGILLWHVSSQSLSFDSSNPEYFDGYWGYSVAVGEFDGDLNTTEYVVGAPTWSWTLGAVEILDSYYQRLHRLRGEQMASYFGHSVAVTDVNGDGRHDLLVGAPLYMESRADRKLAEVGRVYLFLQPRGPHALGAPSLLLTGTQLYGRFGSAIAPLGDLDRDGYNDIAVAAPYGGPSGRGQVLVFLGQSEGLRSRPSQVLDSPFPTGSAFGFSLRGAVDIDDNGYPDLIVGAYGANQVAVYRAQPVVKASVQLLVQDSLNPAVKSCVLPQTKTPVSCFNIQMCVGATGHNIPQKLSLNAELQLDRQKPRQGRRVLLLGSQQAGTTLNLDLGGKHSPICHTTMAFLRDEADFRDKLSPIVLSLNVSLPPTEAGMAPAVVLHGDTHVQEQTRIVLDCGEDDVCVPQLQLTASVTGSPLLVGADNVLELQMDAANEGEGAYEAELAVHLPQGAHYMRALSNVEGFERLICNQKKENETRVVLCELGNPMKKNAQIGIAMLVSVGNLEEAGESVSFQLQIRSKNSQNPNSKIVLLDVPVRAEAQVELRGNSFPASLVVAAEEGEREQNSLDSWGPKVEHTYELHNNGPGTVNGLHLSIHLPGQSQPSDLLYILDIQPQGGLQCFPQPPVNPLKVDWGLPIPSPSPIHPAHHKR
T1 sequence (P08514 891-1039 partner limits assumed): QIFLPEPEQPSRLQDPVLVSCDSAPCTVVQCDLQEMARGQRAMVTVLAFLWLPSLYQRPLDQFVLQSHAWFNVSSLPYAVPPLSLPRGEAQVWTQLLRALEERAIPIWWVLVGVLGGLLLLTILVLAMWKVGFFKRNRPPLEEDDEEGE
T1 sequence (P05106 27-788): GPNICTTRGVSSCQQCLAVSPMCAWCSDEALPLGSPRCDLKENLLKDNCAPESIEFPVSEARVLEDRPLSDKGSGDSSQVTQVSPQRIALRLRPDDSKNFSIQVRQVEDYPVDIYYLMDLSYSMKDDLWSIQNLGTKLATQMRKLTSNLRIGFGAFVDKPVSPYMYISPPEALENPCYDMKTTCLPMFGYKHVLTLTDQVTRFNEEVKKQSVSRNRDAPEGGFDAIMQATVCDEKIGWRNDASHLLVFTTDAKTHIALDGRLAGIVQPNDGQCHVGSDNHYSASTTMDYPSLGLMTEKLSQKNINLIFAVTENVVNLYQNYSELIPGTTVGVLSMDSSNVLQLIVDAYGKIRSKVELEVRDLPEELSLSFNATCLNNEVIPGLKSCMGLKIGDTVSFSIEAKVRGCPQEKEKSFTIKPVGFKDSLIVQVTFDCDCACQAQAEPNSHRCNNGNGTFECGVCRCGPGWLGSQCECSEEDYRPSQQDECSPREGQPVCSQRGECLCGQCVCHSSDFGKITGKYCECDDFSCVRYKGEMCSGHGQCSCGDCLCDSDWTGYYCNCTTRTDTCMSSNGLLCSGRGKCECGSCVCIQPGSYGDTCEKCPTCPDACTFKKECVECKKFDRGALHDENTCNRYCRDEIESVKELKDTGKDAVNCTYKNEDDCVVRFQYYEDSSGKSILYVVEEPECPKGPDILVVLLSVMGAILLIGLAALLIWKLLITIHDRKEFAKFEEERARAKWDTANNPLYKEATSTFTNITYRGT
T2 sequence (P06756 31-889 limits assumed): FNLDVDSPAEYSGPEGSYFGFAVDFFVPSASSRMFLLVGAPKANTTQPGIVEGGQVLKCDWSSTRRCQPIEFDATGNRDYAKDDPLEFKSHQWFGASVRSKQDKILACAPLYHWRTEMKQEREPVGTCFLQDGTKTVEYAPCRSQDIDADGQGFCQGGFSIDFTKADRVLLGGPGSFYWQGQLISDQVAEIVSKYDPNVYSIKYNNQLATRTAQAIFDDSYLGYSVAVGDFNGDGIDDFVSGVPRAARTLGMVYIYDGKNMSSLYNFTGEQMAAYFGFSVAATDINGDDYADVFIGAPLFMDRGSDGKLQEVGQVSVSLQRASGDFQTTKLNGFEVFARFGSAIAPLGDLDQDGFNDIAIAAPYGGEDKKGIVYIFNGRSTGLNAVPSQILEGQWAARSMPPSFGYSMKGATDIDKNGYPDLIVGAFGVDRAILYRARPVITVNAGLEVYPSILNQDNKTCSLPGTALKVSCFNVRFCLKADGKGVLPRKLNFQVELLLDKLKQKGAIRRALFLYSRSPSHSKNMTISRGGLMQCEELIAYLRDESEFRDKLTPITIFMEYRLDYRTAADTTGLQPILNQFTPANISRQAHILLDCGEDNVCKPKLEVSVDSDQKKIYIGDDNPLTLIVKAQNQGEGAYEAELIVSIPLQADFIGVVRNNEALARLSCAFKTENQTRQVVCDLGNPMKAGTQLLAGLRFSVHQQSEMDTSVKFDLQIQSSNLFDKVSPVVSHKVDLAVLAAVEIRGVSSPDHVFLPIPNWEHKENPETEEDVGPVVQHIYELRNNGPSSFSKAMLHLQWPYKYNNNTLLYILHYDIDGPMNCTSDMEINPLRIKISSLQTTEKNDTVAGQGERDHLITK
T2 sequence (P06756 891-1048 partner limits assumed): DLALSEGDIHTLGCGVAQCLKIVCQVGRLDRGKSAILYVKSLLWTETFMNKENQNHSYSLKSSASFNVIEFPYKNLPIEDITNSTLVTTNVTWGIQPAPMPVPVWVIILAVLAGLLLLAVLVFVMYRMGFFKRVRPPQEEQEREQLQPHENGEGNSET
T2 sequence (P05106 27-788): as the sequence (P05106 27-788) above

As for `Nc1cccc(COC[C@H]2OC(O)[C@H](NC(=O)CCC(=O)O)[C@@H](OCc3ccc(Br)cc3)[C@@H]2O)c1` (single isomer, unassigned) [Compound 47], at αllbβ3 integrin, the “INHIBITION @ 250 uM RECEPTOR allBb3 SUBSTRATE FIBRINOGEN” value is reported as “+ (36% to 60% inhibition at 250 micromolar)” and the “INHIBITION 250 uM RECEPTOR allBb3 SUBSTRATE VITRONECTIN” value is recorded as “+++ (81% to 100% inhibition at 250 micromolar)”. Besides, the “INHIBITION 250 uM RECEPTOR aVb3 SUBSTRATE FIBRINOGEN” value on αVβ3 integrin is recorded as “− (0% to 35% inhibition at 250 micromolar)”.

For `COC1OC(COCC(=O)O)C(O)C(OCc2ccccc2)C1NC(=O)c1ccc(CNC(=N)N)cc1` (single isomer, unassigned) [Compound 128], at αllbβ3 integrin, the “INHIBITION @ 250 uM RECEPTOR allBb3 SUBSTRATE FIBRINOGEN” value was “− (0% to 35% inhibition at 250 micromolar)” and the “INHIBITION 250 uM RECEPTOR allBb3 SUBSTRATE VITRONECTIN” value is “+++ (81% to 100% inhibition at 250 micromolar)”. For the same molecule, the “INHIBITION 250 uM RECEPTOR aVb3 SUBSTRATE FIBRINOGEN” value at αVβ3 integrin was “− (0% to 35% inhibition at 250 micromolar)”.

Turning to `CCOC1OC(COCC(=O)O)C(O)C(OCc2ccccc2)C1NC(=O)CNC(=N)N` (single isomer, unassigned) [Compound 118], on αllbβ3 integrin, the “INHIBITION @ 250 uM RECEPTOR allBb3 SUBSTRATE FIBRINOGEN” value was “− (0% to 35% inhibition at 250 micromolar)” and the “INHIBITION 250 uM RECEPTOR allBb3 SUBSTRATE VITRONECTIN” value was “+++ (81% to 100% inhibition at 250 micromolar)”. In addition, the “INHIBITION 250 uM RECEPTOR aVb3 SUBSTRATE FIBRINOGEN” value at αVβ3 integrin is “− (0% to 35% inhibition at 250 micromolar)”.

Take `COC(=O)c1ccc(COC2C(O)C(COCc3ccccc3)OC(OC)C2NC(=O)CCNC(=N)N)cc1` (single isomer, unassigned) [Compound 14]: at αllbβ3 integrin, the “INHIBITION @ 250 uM RECEPTOR allBb3 SUBSTRATE FIBRINOGEN” value is listed as “+ (36% to 60% inhibition at 250 micromolar)” and the “INHIBITION 250 uM RECEPTOR allBb3 SUBSTRATE VITRONECTIN” value is listed as “+++ (81% to 100% inhibition at 250 micromolar)”. Also, on αVβ3 integrin, the “INHIBITION 250 uM RECEPTOR aVb3 SUBSTRATE FIBRINOGEN” value was “++ (61% to 80% inhibition at 250 micromolar)”.

With `CCC(=O)NC1C(OCc2ccccc2)OC(COCc2cccc(N)c2)C(O)C1OCc1ccc(C(=O)O)cc1` (single isomer, unassigned) [Compound 104], at αllbβ3 integrin, the “INHIBITION @ 250 uM RECEPTOR allBb3 SUBSTRATE FIBRINOGEN” value is given as “− (0% to 35% inhibition at 250 micromolar)” and the “INHIBITION 250 uM RECEPTOR allBb3 SUBSTRATE VITRONECTIN” value is listed as “+++ (81% to 100% inhibition at 250 micromolar)”. The “INHIBITION 250 uM RECEPTOR aVb3 SUBSTRATE FIBRINOGEN” value at αVβ3 integrin is “− (0% to 35% inhibition at 250 micromolar)”.

As to `COCC1OC(OCc2ccccc2)C(NC(=O)c2ccc(C(=O)O)cc2)C(OCc2cccc(N)c2)C1O` (single isomer, unassigned) [Compound 106], at αllbβ3 integrin, the “INHIBITION @ 250 uM RECEPTOR allBb3 SUBSTRATE FIBRINOGEN” value is recorded as “+ (36% to 60% inhibition at 250 micromolar)” and the “INHIBITION 250 uM RECEPTOR allBb3 SUBSTRATE VITRONECTIN” value is “+++ (81% to 100% inhibition at 250 micromolar)”. Besides, on αVβ3 integrin, the “INHIBITION 250 uM RECEPTOR aVb3 SUBSTRATE FIBRINOGEN” value is listed as “− (0% to 35% inhibition at 250 micromolar)”.

`Nc1cccc(COC2C(O)C(COCc3ccccc3)OC(O)C2NC(=O)c2ccc(C(=O)O)cc2)c1` (single isomer, unassigned) [Compound 71]: on αllbβ3 integrin, the “INHIBITION @ 250 uM RECEPTOR allBb3 SUBSTRATE FIBRINOGEN” value was “− (0% to 35% inhibition at 250 micromolar)” and the “INHIBITION 250 uM RECEPTOR allBb3 SUBSTRATE VITRONECTIN” value is given as “+++ (81% to 100% inhibition at 250 micromolar)”. In addition, the “INHIBITION 250 uM RECEPTOR aVb3 SUBSTRATE FIBRINOGEN” value on αVβ3 integrin is on record as “+++ (81% to 100% inhibition at 250 micromolar)”.

`CCOCC1OC(OCc2ccccc2)C(NC(=O)CCNC(=N)N)C(OCC(=O)O)C1O` (single isomer, unassigned) [Compound 92]: at αllbβ3 integrin, the “INHIBITION @ 250 uM RECEPTOR allBb3 SUBSTRATE FIBRINOGEN” value is reported as “+ (36% to 60% inhibition at 250 micromolar)” and the “INHIBITION 250 uM RECEPTOR allBb3 SUBSTRATE VITRONECTIN” value is “+++ (81% to 100% inhibition at 250 micromolar)”. The “INHIBITION 250 uM RECEPTOR aVb3 SUBSTRATE FIBRINOGEN” value at αVβ3 integrin was “++ (61% to 80% inhibition at 250 micromolar)”.

For `CCOC1O[C@H](COCC(=O)O)[C@@H](O)[C@H](OCc2ccc(Br)cc2)[C@H]1NC(=O)c1cccc(N)c1` (single isomer, unassigned) [Compound 38], at αllbβ3 integrin, the “INHIBITION @ 250 uM RECEPTOR allBb3 SUBSTRATE FIBRINOGEN” value is on record as “++ (61% to 80% inhibition at 250 micromolar)” and the “INHIBITION 250 uM RECEPTOR allBb3 SUBSTRATE VITRONECTIN” value is “+++ (81% to 100% inhibition at 250 micromolar)”. The “INHIBITION 250 uM RECEPTOR aVb3 SUBSTRATE FIBRINOGEN” value at αVβ3 integrin is reported as “+++ (81% to 100% inhibition at 250 micromolar)”.

As to `CCOCC1OC(OCc2ccccc2)C(NC(=O)c2ccc(C(=O)O)cc2)C(OCc2cccc(N)c2)C1O` (single isomer, unassigned) [Compound 108], on αllbβ3 integrin, the “INHIBITION @ 250 uM RECEPTOR allBb3 SUBSTRATE FIBRINOGEN” value is given as “− (0% to 35% inhibition at 250 micromolar)” and the “INHIBITION 250 uM RECEPTOR allBb3 SUBSTRATE VITRONECTIN” value is given as “+++ (81% to 100% inhibition at 250 micromolar)”. Moreover, on αVβ3 integrin, the “INHIBITION 250 uM RECEPTOR aVb3 SUBSTRATE FIBRINOGEN” value was “− (0% to 35% inhibition at 250 micromolar)”.

As to `CCC(=O)NC1C(OCc2ccccc2)OC(COCc2cccc(N)c2)C(O)C1OCc1ccc(C(=O)O)cc1` (single isomer, unassigned) [Compound 103], on αllbβ3 integrin, the “INHIBITION @ 250 uM RECEPTOR allBb3 SUBSTRATE FIBRINOGEN” value was “++ (61% to 80% inhibition at 250 micromolar)” and the “INHIBITION 250 uM RECEPTOR allBb3 SUBSTRATE VITRONECTIN” value was “+++ (81% to 100% inhibition at 250 micromolar)”. Besides, at αVβ3 integrin, the “INHIBITION 250 uM RECEPTOR aVb3 SUBSTRATE FIBRINOGEN” value is “+++ (81% to 100% inhibition at 250 micromolar)”.

With `CCOC1OC(COCC(=O)O)C(O)C(OCc2ccccc2)C1NC(=O)CNC(=N)N` (single isomer, unassigned) [Compound 119], at αllbβ3 integrin, the “INHIBITION @ 250 uM RECEPTOR allBb3 SUBSTRATE FIBRINOGEN” value is given as “− (0% to 35% inhibition at 250 micromolar)” and the “INHIBITION 250 uM RECEPTOR allBb3 SUBSTRATE VITRONECTIN” value is on record as “+++ (81% to 100% inhibition at 250 micromolar)”. For the same molecule, at αVβ3 integrin, the “INHIBITION 250 uM RECEPTOR aVb3 SUBSTRATE FIBRINOGEN” value is “− (0% to 35% inhibition at 250 micromolar)”.

For `CCOC1O[C@H](COCc2ccc(Br)cc2)[C@@H](O)[C@H](OCc2ccc(C(=O)O)cc2)[C@H]1NC(=O)CCNC(=N)N` (single isomer, unassigned) [Compound 60], on αllbβ3 integrin, the “INHIBITION @ 250 uM RECEPTOR allBb3 SUBSTRATE FIBRINOGEN” value is “+ (36% to 60% inhibition at 250 micromolar)” and the “INHIBITION 250 uM RECEPTOR allBb3 SUBSTRATE VITRONECTIN” value is listed as “+++ (81% to 100% inhibition at 250 micromolar)”. In addition, the “INHIBITION 250 uM RECEPTOR aVb3 SUBSTRATE FIBRINOGEN” value on αVβ3 integrin is listed as “+++ (81% to 100% inhibition at 250 micromolar)”.

On to `N=C(N)NCCC(=O)N[C@H]1C(O)O[C@H](COCc2ccccc2)[C@@H](O)[C@@H]1OCc1ccc(C(=O)O)cc1` (single isomer, unassigned) [Compound 59], for which, on αllbβ3 integrin, the “INHIBITION @ 250 uM RECEPTOR allBb3 SUBSTRATE FIBRINOGEN” value is “+ (36% to 60% inhibition at 250 micromolar)” and the “INHIBITION 250 uM RECEPTOR allBb3 SUBSTRATE VITRONECTIN” value is reported as “+++ (81% to 100% inhibition at 250 micromolar)”. On αVβ3 integrin, the “INHIBITION 250 uM RECEPTOR aVb3 SUBSTRATE FIBRINOGEN” value is given as “+++ (81% to 100% inhibition at 250 micromolar)”.

In the case of `COCC1OC(OCCNC(=N)N)C(NC(=O)c2ccccc2)C(OCc2ccc(C(=O)O)cc2)C1O` (single isomer, unassigned) [Compound 115], on αllbβ3 integrin, the “INHIBITION @ 250 uM RECEPTOR allBb3 SUBSTRATE FIBRINOGEN” value is recorded as “− (0% to 35% inhibition at 250 micromolar)” and the “INHIBITION 250 uM RECEPTOR allBb3 SUBSTRATE VITRONECTIN” value is “− (0% to 35% inhibition at 250 micromolar)”. Also, on αVβ3 integrin, the “INHIBITION 250 uM RECEPTOR aVb3 SUBSTRATE FIBRINOGEN” value is listed as “− (0% to 35% inhibition at 250 micromolar)”.

With `CCOC1C(O)C(COCc2cccc(N)c2)OC(OCc2ccccc2)C1NC(=O)CCC(=O)O` (single isomer, unassigned) [Compound 88], at αllbβ3 integrin, the “INHIBITION @ 250 uM RECEPTOR allBb3 SUBSTRATE FIBRINOGEN” value is recorded as “− (0% to 35% inhibition at 250 micromolar)” and the “INHIBITION 250 uM RECEPTOR allBb3 SUBSTRATE VITRONECTIN” value is recorded as “++ (61% to 80% inhibition at 250 micromolar)”. In addition, at αVβ3 integrin, the “INHIBITION 250 uM RECEPTOR aVb3 SUBSTRATE FIBRINOGEN” value is listed as “− (0% to 35% inhibition at 250 micromolar)”.

(Values after US20080176936A1, “Classes of Compounds that Interact with Integrins” (priority 2005, published 2008).)
